Among the data in patent US12116358B2, “Substituted indoles and methods of use thereof” (EPIZYME, INC., priority 2018, dated 2024) are IC50 values, retold here.

The target of one assay is T1, SETD2(1434-1711) (Homo sapiens, UniProt Q9BYW2).
T1 construct: SETD2 (1434-1711) Assay; catalogue N/A
T1 sequence (Q9BYW2 1434-1711): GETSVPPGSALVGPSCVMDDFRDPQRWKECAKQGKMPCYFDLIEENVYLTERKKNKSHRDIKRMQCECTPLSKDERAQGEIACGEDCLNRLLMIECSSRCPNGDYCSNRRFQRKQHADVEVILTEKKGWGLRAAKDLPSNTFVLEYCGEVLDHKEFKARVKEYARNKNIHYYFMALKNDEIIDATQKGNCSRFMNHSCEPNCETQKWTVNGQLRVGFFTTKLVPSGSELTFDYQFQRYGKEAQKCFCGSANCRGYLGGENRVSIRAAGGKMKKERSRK
The assay is described as follows: SETD2 (1434-1711) assay. The assay is classed as biochemical. The settings on record: read-out: SETD2 (1434-1711).

The next assay relates to H3K36me3 in A549 cells. The assay is described as follows: In-Cell Western (ICW) assay of SETD2 inhibitors (A549 assay). The assay is classed as cell-based, human. The note with it: A549 cells, read-out: SETD2 A549. Put shortly: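 A549 cells seeded at 4,000/well onto compound and incubated 3 days at 37° C. Methanol-fixed cells stained overnight at 4° C with anti-H3K36me3 (1:1000), then IRDye 800CW secondary with DRAQ5 DNA counterstain. Plates read by Licor imaging at 700 and 800 channels.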

The next assay concerns KMS-34 cells. The assay can be described thus: 14 day KMS-34 long term proliferation (LTP) assay. The settings on record: read-out: LTP Day 14 Abs IC50.

Like-named read-outs stand apart in the source and are kept apart here.

Method for KMS-34 cells: 14 Day KMS-34 Long Term Proliferation (LTP) Assay
Incubate plates for 96 hrs.
The final concentration is 1 μm.
To calculate growth for days 4, 7, 11, and 14:
1. Calculate the split factor for day 4 to 7, day 7 to 11, and day 11-14 The split factor is the viable cells/mL on Day X (either 4, 7, or 11) divided by the density the cells are being split back to.
2. For growth of cells from day 4 to 7, multiply the day 7 viable cells/mL density by the split factor from day 4.
4. For growth of cells from Day 11 to 14, multiply the Day 14 viable cells/mL density by the days 4, 7, and 11 split factors.
5. Plot growth on semi-log chart (viable cells/mL on Y axis, in log, and days on X axis).
From 5 mM to 0.25 μm. […] Mix well by pipetting up and down.

With `Cc1nnc(-c2cccc(NC(=O)c3cc4c(F)ccc(C)c4[nH]3)c2)s1` [compound 65], the IC50 on SETD2(1434-1711) was 20 nM; in the assay on H3K36me3 in A549 cells, 100 nM; in the assay with KMS-34 cells (KMS-34 cells, day 14), 280 nM.

Regarding `Cc1ccc(F)c2cc(C(=O)Nc3cccc(-c4cnn(C)c4)c3)[nH]c12` [compound 151], the IC50 was 80 nM on SETD2(1434-1711); 300 nM in the assay on H3K36me3 in A549 cells (Homo sapiens); 580 nM with KMS-34 cells (Homo sapiens, KMS-34, 336 h).

Consider `CC(=O)N1CCN(C2CCCC(NC(=O)c3cc4c(F)ccc(C)c4[nH]3)C2)CC1` (centres unmarked) [compound 373], for which the IC50 in the assay with H3K36me3 in A549 cells was over 2000 nM; in the assay on KMS-34 cells (KMS-34 cells, day 14), 10000 nM.

`Cc1ccc(F)c2cc(C(=O)Nc3cccc(N4CCOC(CO)C4)c3)[nH]c12` (centres unmarked) [compound 115]: the IC50 at SETD2(1434-1711) was 50 nM; in the assay on H3K36me3 in A549 cells it was 200 nM; in the assay with KMS-34 cells (KMS-34 cells, day 14), 260 nM.

For `Cc1ccc(F)c2cc(C(=O)Nc3cccc(-c4cncnc4)c3)[nH]c12` [compound 64], the IC50 on SETD2(1434-1711) came out at 60 nM; in the assay with H3K36me3 in A549 cells it was 100 nM; in the assay with KMS-34 cells (KMS-34 cells, day 14), 380 nM.

For `CC(=O)N1CCN(C2CCCC(NC(=O)c3cc4c(F)ccc(C)c4[nH]3)C2)CC1` (centres unmarked) [compound 372], the IC50 is over 2000 nM in the assay on H3K36me3 in A549 cells and 10000 nM with KMS-34 cells (KMS-34 cells, day 14).

For the compound `CC(=O)N1CCN(c2cccc(NC(=O)c3cc4c(F)ccc(C)c4[nH]3)c2)CC1` [compound 34], the IC50 in the assay on H3K36me3 in A549 cells worked out at 80 nM; in the assay on KMS-34 cells (KMS-34 cells, day 14), 250 nM.

Consider `Cc1ccc(F)c2cc(C(=O)Nc3cccc(N4CCC(N5CCOCC5)CC4)c3)[nH]c12` [compound 76], for which the IC50 stood at 30 nM on SETD2(1434-1711); 200 nM in the assay on H3K36me3 in A549 cells; 360 nM in the assay on KMS-34 cells (KMS-34 cells, day 14).

For `CC(=O)N1CCN(c2cc(F)cc(NC(=O)c3cc4c(F)ccc(C)c4[nH]3)c2)CC1` [compound 7], the IC50 worked out at 40 nM in the assay on H3K36me3 in A549 cells and 60 nM in the assay on KMS-34 cells (KMS-34 cells, day 14).

As for `CC(=O)N1CCN(c2cccc(NC(=O)c3cc4cccc(C5CC5)c4[nH]3)c2)CC1` [compound 509], the IC50 at SETD2(1434-1711) was 22400 nM; with H3K36me3 in A549 cells (Homo sapiens), 15400 nM; with KMS-34 cells (Homo sapiens, KMS-34, 336 h) it was 2600 nM.

Turning to `CC(=O)N1CCN(c2cc(Cl)cc(NC(=O)c3cc4c(F)ccc(C)c4[nH]3)c2)CC1` [compound 31], the IC50 came out at 10 nM at SETD2(1434-1711); 80 nM with H3K36me3 in A549 cells; 130 nM in the assay with KMS-34 cells (KMS-34 cells, day 14).

Consider `Cc1ccc(F)c2cc(C(=O)Nc3cc(F)cc(N4CCC(N5CCOCC5)C4)c3)[nH]c12` (centres unmarked) [compound 11], for which the IC50 on SETD2(1434-1711) was 6 nM; with H3K36me3 in A549 cells it was 40 nM; in the assay on KMS-34 cells (KMS-34 cells, day 14), 90 nM.

`Cc1ccc(F)c2cc(C(=O)Nc3cccc(N4CCOC4=O)c3)[nH]c12` [compound 66]: the IC50 at SETD2(1434-1711) is 30 nM; with H3K36me3 in A549 cells (Homo sapiens), 200 nM; in the assay on KMS-34 cells (Homo sapiens, KMS-34, 336 h), 420 nM.

Consider `Cc1ccc(F)c2cc(C(=O)Nc3cc(Cl)cc(N4CCC(N5CCOCC5)C4)c3)[nH]c12` (centres unmarked) [compound 22], for which the IC50 on SETD2(1434-1711) was 10 nM; in the assay on H3K36me3 in A549 cells, 60 nM; with KMS-34 cells (KMS-34 cells, day 14) it was 110 nM.

Regarding `Cc1ccc(F)c2cc(C(=O)Nc3cccc(-n4ccnc4)c3)[nH]c12` [compound 221], the IC50 was found to be 100 nM on SETD2(1434-1711); 500 nM in the assay with H3K36me3 in A549 cells (Homo sapiens); 930 nM with KMS-34 cells (Homo sapiens, KMS-34, 336 h).

For the compound `CC(=O)N1CCN(c2cc(NC(=O)c3cc4c(F)ccc(C)c4[nH]3)cc(C(F)(F)F)c2)CC1` [compound 242], the values for the IC50 at SETD2(1434-1711) and in the assay with H3K36me3 in A549 cells were 100 nM and 600 nM, respectively.

Consider `Cc1ccc(F)c2cc(C(=O)Nc3cc(Cl)cc(N4CCC(CCCN5CCCC5)CC4)c3)[nH]c12` [compound 1158], for which the IC50 at SETD2(1434-1711) was determined as 6 nM; in the assay with H3K36me3 in A549 cells it was 900 nM.

With `Cc1ccc(F)c2cc(C(=O)Nc3cc(F)cc([C@H]4CC[C@@H](N(C)C)CC4)c3)[nH]c12` [compound 69], the values for the IC50 at SETD2(1434-1711) and in the assay with H3K36me3 in A549 cells were 3 nM and 200 nM, respectively.

For `Cc1cccc2cc(C(=O)N[C@@H]3CCN(C(=O)CCCN)C[C@@H]3C)[nH]c12` [compound 588], the IC50 on SETD2(1434-1711) is 40400 nM; in the assay with H3K36me3 in A549 cells (Homo sapiens), over 25000 nM.

As to `CC(=O)N1CCCN(C2CCCC(NC(=O)c3cc4c(F)ccc(C)c4[nH]3)C2)CC1` (centres unmarked) [compound 979], the IC50 on SETD2(1434-1711) was 60 nM; in the assay on H3K36me3 in A549 cells, 500 nM.

Take `Cc1ccc(F)c2cc(C(=O)Nc3cccc4cnccc34)[nH]c12` [compound 134]: the IC50 worked out at 60 nM on SETD2(1434-1711); 300 nM in the assay on H3K36me3 in A549 cells; 800 nM in the assay on KMS-34 cells (KMS-34 cells, day 14).

As for `CC(=O)N1CCN(c2cccc(NC(=O)c3cc4c(F)ccc(C)c4[nH]3)c2)CC1C` (centres unmarked) [compound 32], the IC50 on SETD2(1434-1711) was found to be 20 nM; with H3K36me3 in A549 cells, 80 nM; with KMS-34 cells (KMS-34 cells, day 14), 110 nM.

`Cc1ccc(F)c2cc(C(=O)NC3CCCC(N4CCN5C(=O)OCC5C4)C3)[nH]c12` (centres unmarked) [compound 1135]: the IC50 worked out at 20 nM at SETD2(1434-1711) and 70 nM with H3K36me3 in A549 cells.

Regarding `CC(=O)N1CCN([C@H]2CCC[C@@H](NC(=O)c3cc4c(F)ccc(C)c4[nH]3)C2)C2(CC2)C1` [compound 1024], the figures for the IC50 at SETD2(1434-1711) and in the assay on H3K36me3 in A549 cells (Homo sapiens) were 50 nM and 60 nM, respectively.

Turning to `Cc1ccc(F)c2cc(C(=O)Nc3cccc(-c4ccn(C)n4)c3)[nH]c12` [compound 394], the values for the IC50 on SETD2(1434-1711) and in the assay with H3K36me3 in A549 cells (Homo sapiens) were 200 nM and 2100 nM, respectively.

As to `Cc1ccc(F)c2cc(C(=O)Nc3cccc(N4CCN5C(=O)N(C)CC5C4)c3)[nH]c12` (centres unmarked) [compound 54], the IC50 at SETD2(1434-1711) worked out at 30 nM; in the assay on H3K36me3 in A549 cells (Homo sapiens) it was 100 nM.

Turning to `CC(=O)N1CCN([C@H]2C[C@H](NC(=O)c3cc4c(F)ccc(C)c4[nH]3)CN(C)C2)CC1` [compound 1107], the values for the IC50 on SETD2(1434-1711) and with H3K36me3 in A549 cells (Homo sapiens) were 5300 nM and over 2000 nM, respectively.

As for `CC(=O)N1CCN(C2CCCC(NC(=O)c3cc4c(F)ccc(C)c4[nH]3)C2)CC1` (centres unmarked) [compound 359], the IC50 in the assay with H3K36me3 in A549 cells is over 2000 nM; in the assay with KMS-34 cells (KMS-34 cells, day 14), 7800 nM.

For the compound `Cc1cc(-c2ncccn2)cnc1C(NC(=O)c1cc2cccc(C)c2[nH]1)C1CC1` (centres unmarked) [compound 404], the IC50 on SETD2(1434-1711) was determined as 300 nM; in the assay on H3K36me3 in A549 cells (Homo sapiens), 2800 nM.

As for `Cc1ccc(F)c2cc(C(=O)Nc3cccc(N4C[C@H](O)[C@@H](N(C)C)C4)c3)[nH]c12` [compound 61], the IC50 on SETD2(1434-1711) stood at 10 nM; in the assay on H3K36me3 in A549 cells, 100 nM.

Take `CC(=O)N1CCN(C2CCCC(NC(=O)c3cc4c(F)ccc(C)c4[nH]3)C2)CC1CO` (centres unmarked) [compound 1022]: the values for the IC50 at SETD2(1434-1711) and with H3K36me3 in A549 cells were 2600 nM and over 2000 nM, respectively.

`Cc1ccc(F)c2cc(C(=O)Nc3cccc(N4CCNC(=O)C4)c3)[nH]c12` [compound 147]: the figures for the IC50 at SETD2(1434-1711) and in the assay with H3K36me3 in A549 cells (Homo sapiens) were 30 nM and 300 nM, respectively.

As to `Cc1ccc(F)c2cc(C(=O)Nc3cc(Cl)cc(N4CCC(CCCN)CC4)c3)[nH]c12` [compound 246], the values for the IC50 at SETD2(1434-1711) and in the assay on H3K36me3 in A549 cells were 9 nM and 600 nM, respectively.

On to `Cc1cc(CCN2CCN(C)CC2)cnc1C(NC(=O)c1cc2cccc(C)c2[nH]1)C1CC1` (centres unmarked) [compound 435], for which the IC50 was 700 nM at SETD2(1434-1711) and 4700 nM in the assay with H3K36me3 in A549 cells (Homo sapiens).

For the compound `Cc1ccc(F)c2cc(C(=O)N[C@@H]3CCC[C@H](N4CCN5C(=O)N(C)C[C@H]5C4)C3)[nH]c12` [compound 1126], the IC50 was 20 nM at SETD2(1434-1711) and 80 nM in the assay with H3K36me3 in A549 cells (Homo sapiens).
